Experimental data: paper PMC8217813, “Bridging Computational Vaccinology and Vaccine Development Through Systematic Identification, Characterization, and Downselection of Conserved and Variable Circumsporozoite Protein CD4 T Cell Epitopes From Diverse Plasmodium falciparum Strains” (Frontiers in Immunology, 2021)
Peptide text beside a SMILES is read from it.

How the values were obtained:
HLA A*0101 = biological target: T1, HLA A*0101 (Homo sapiens, UniProt P04439, A114D/A174V/A182V/D101N/D185E/E176A/E190D/L180R/Q94H/R68K/S129P/T187R/V100A/V91M/W191G); test: biochemical; assay type: binding; conditions: allele A0101, cell-free competition with fluorescently labeled control peptide, fluorescence polarization at 72 hours; for IC50: read-out: IC50
T1 construct: Pure Protein, LLC (ran the assay)

[1] = system: CD4 T cells co-cultured with autologous DCs from PBMCs; assay type: cell-based, human; conditions: positive = Stimulation Index ≥1.5-fold above baseline, 5 µg/mL peptide; for Percentage of donors demonstrating IFN-γ responses, DR1 / Percentage of donors demonstrating IL-2 responses, DR1 / Percentage of donors demonstrating IL-4 responses, DR1 / Percentage of donors demonstrating IL-10 responses, DR1 / Percentage of donors demonstrating TNF-α responses, DR1: DR1 donors N=5; for Percentage of donors demonstrating IFN-γ responses, DR1 / Percentage of donors demonstrating IFN-γ responses, DR3 / Percentage of donors demonstrating IFN-γ responses, DR4 / Percentage of donors demonstrating IFN-γ responses, DR7 / Percentage of donors demonstrating IFN-γ responses, DR8 / Percentage of donors demonstrating IFN-γ responses, DR9 / Percentage of donors demonstrating IFN-γ responses, DR11 / Percentage of donors demonstrating IFN-γ responses, DR13 / Percentage of donors demonstrating IFN-γ responses, DR15: ICCS after 14-day co-culture; for Percentage of donors demonstrating IL-2 responses, DR1 / Percentage of donors demonstrating IL-4 responses, DR1 / Percentage of donors demonstrating IL-10 responses, DR1 / Percentage of donors demonstrating TNF-α responses, DR1 / Percentage of donors demonstrating IL-2 responses, DR3 / Percentage of donors demonstrating IL-4 responses, DR3 / Percentage of donors demonstrating IL-10 responses, DR3 / Percentage of donors demonstrating TNF-α responses, DR3 / Percentage of donors demonstrating IL-2 responses, DR4 / Percentage of donors demonstrating IL-4 responses, DR4 / Percentage of donors demonstrating IL-10 responses, DR4 / Percentage of donors demonstrating TNF-α responses, DR4 / Percentage of donors demonstrating IL-2 responses, DR7 / Percentage of donors demonstrating IL-4 responses, DR7 / Percentage of donors demonstrating IL-10 responses, DR7 / Percentage of donors demonstrating TNF-α responses, DR7 / Percentage of donors demonstrating IL-2 responses, DR8 / Percentage of donors demonstrating IL-4 responses, DR8 / Percentage of donors demonstrating IL-10 responses, DR8 / Percentage of donors demonstrating TNF-α responses, DR8 / Percentage of donors demonstrating IL-2 responses, DR9 / Percentage of donors demonstrating IL-4 responses, DR9 / Percentage of donors demonstrating IL-10 responses, DR9 / Percentage of donors demonstrating TNF-α responses, DR9 / Percentage of donors demonstrating IL-2 responses, DR11 / Percentage of donors demonstrating IL-4 responses, DR11 / Percentage of donors demonstrating IL-10 responses, DR11 / Percentage of donors demonstrating TNF-α responses, DR11 / Percentage of donors demonstrating IL-2 responses, DR13 / Percentage of donors demonstrating IL-4 responses, DR13 / Percentage of donors demonstrating IL-10 responses, DR13 / Percentage of donors demonstrating TNF-α responses, DR13 / Percentage of donors demonstrating IL-2 responses, DR15 / Percentage of donors demonstrating IL-4 responses, DR15 / Percentage of donors demonstrating IL-10 responses, DR15 / Percentage of donors demonstrating TNF-α responses, DR15: ICCS; for Percentage of donors demonstrating IFN-γ responses, DR3 / Percentage of donors demonstrating IL-2 responses, DR3 / Percentage of donors demonstrating IL-4 responses, DR3 / Percentage of donors demonstrating IL-10 responses, DR3 / Percentage of donors demonstrating TNF-α responses, DR3: DR3 donors N=6; for Percentage of donors demonstrating IFN-γ responses, DR4 / Percentage of donors demonstrating IL-2 responses, DR4 / Percentage of donors demonstrating IL-4 responses, DR4 / Percentage of donors demonstrating IL-10 responses, DR4 / Percentage of donors demonstrating TNF-α responses, DR4: DR4 donors N=10; for Percentage of donors demonstrating IFN-γ responses, DR7 / Percentage of donors demonstrating IL-2 responses, DR7 / Percentage of donors demonstrating IL-4 responses, DR7 / Percentage of donors demonstrating IL-10 responses, DR7 / Percentage of donors demonstrating TNF-α responses, DR7: DR7 donors N=4; for Percentage of donors demonstrating IFN-γ responses, DR8 / Percentage of donors demonstrating IL-2 responses, DR8 / Percentage of donors demonstrating IL-4 responses, DR8 / Percentage of donors demonstrating IL-10 responses, DR8 / Percentage of donors demonstrating TNF-α responses, DR8: DR8 donors N=4; for Percentage of donors demonstrating IFN-γ responses, DR9 / Percentage of donors demonstrating IL-2 responses, DR9 / Percentage of donors demonstrating IL-4 responses, DR9 / Percentage of donors demonstrating IL-10 responses, DR9 / Percentage of donors demonstrating TNF-α responses, DR9: DR9 donors N=4; for Percentage of donors demonstrating IFN-γ responses, DR11 / Percentage of donors demonstrating IL-2 responses, DR11 / Percentage of donors demonstrating IL-4 responses, DR11 / Percentage of donors demonstrating IL-10 responses, DR11 / Percentage of donors demonstrating TNF-α responses, DR11: DR11 donors N=4; for Percentage of donors demonstrating IFN-γ responses, DR13 / Percentage of donors demonstrating IL-2 responses, DR13 / Percentage of donors demonstrating IL-4 responses, DR13 / Percentage of donors demonstrating IL-10 responses, DR13 / Percentage of donors demonstrating TNF-α responses, DR13: DR13 donors N=7; for Percentage of donors demonstrating IFN-γ responses, DR15 / Percentage of donors demonstrating IL-2 responses, DR15 / Percentage of donors demonstrating IL-4 responses, DR15 / Percentage of donors demonstrating IL-10 responses, DR15 / Percentage of donors demonstrating TNF-α responses, DR15: DR15 donors N=7

NVDPNANPNV [Cluster 109_3D7]
Non-Binder: IC50 (nM) (HLA A*0101)

DQHIEQYLKKIQNSISTEWS [ICS3]
10%: Percentage of donors demonstrating IL-4 responses, DR4 [1]
17%: Percentage of donors demonstrating IL-4 responses, DR3 [1] | Percentage of donors demonstrating IL-10 responses, DR3 [1]
25%: Percentage of donors demonstrating TNF-α responses, DR8 [1] | Percentage of donors demonstrating TNF-α responses, DR9 [1] | Percentage of donors demonstrating IFN-γ responses, DR11 [1] | Percentage of donors demonstrating IL-2 responses, DR11 [1]
50%: Percentage of donors demonstrating IL-2 responses, DR7 [1] | Percentage of donors demonstrating TNF-α responses, DR7 [1] | Percentage of donors demonstrating TNF-α responses, DR11 [1]
30%: Percentage of donors demonstrating IFN-γ responses, DR4 [1]
0%: Percentage of donors demonstrating IL-4 responses, DR1 [1] | Percentage of donors demonstrating IL-2 responses, DR3 [1] | Percentage of donors demonstrating TNF-α responses, DR3 [1] | Percentage of donors demonstrating IL-10 responses, DR4 [1] | Percentage of donors demonstrating IL-4 responses, DR7 [1] | Percentage of donors demonstrating IL-10 responses, DR7 [1] | Percentage of donors demonstrating IFN-γ responses, DR8 [1] | Percentage of donors demonstrating IL-2 responses, DR8 [1] | Percentage of donors demonstrating IL-4 responses, DR8 [1] | Percentage of donors demonstrating IL-10 responses, DR8 [1] | Percentage of donors demonstrating IFN-γ responses, DR9 [1] | Percentage of donors demonstrating IL-2 responses, DR9 [1] | Percentage of donors demonstrating IL-4 responses, DR9 [1] | Percentage of donors demonstrating IL-10 responses, DR9 [1] | Percentage of donors demonstrating IL-4 responses, DR11 [1] | Percentage of donors demonstrating IL-10 responses, DR11 [1] | Percentage of donors demonstrating IFN-γ responses, DR13 [1] | Percentage of donors demonstrating IL-2 responses, DR13 [1] | Percentage of donors demonstrating IL-4 responses, DR13 [1] | Percentage of donors demonstrating IL-10 responses, DR13 [1] | Percentage of donors demonstrating IL-4 responses, DR15 [1]
60%: Percentage of donors demonstrating TNF-α responses, DR1 [1]
14%: Percentage of donors demonstrating TNF-α responses, DR13 [1] | Percentage of donors demonstrating IFN-γ responses, DR15 [1] | Percentage of donors demonstrating IL-2 responses, DR15 [1] | Percentage of donors demonstrating IL-10 responses, DR15 [1]
29%: Percentage of donors demonstrating TNF-α responses, DR15 [1]
40%: Percentage of donors demonstrating IL-2 responses, DR4 [1] | Percentage of donors demonstrating TNF-α responses, DR4 [1]
80%: Percentage of donors demonstrating IFN-γ responses, DR1 [1] | Percentage of donors demonstrating IL-2 responses, DR1 [1]
75%: Percentage of donors demonstrating IFN-γ responses, DR7 [1]
33%: Percentage of donors demonstrating IFN-γ responses, DR3 [1]
20%: Percentage of donors demonstrating IL-10 responses, DR1 [1]

ELDYENDIEK [Cluster 357_CVX154]
Non-Binder: IC50 (nM) (HLA A*0101)

CC(C)[C@H](NC(=O)[C@@H](N)CC(N)=O)C(=O)N[C@@H](CC(=O)O)C(=O)N[C@@H](CCC(=O)O)C(=O)N[C@@H](CC(N)=O)C(=O)N[C@@H](C)C(=O)N[C@@H](CC(N)=O)C(=O)N[C@@H](C)C(=O)N[C@@H](CC(N)=O)C(=O)N[C@@H](CC(N)=O)C(=O)O [Cluster 292_CVX337] (H-NVDENANANN-OH)
667 µM: IC50 (HLA A*0101)

CC[C@H](C)[C@H](NC(=O)[C@H](CO)NC(=O)[C@H](CO)NC(=O)[C@@H](N)CC(N)=O)C(=O)NCC(=O)N[C@@H](CC(C)C)C(=O)N[C@H](C(=O)N[C@@H](CCSC)C(=O)N[C@H](C(=O)O)C(C)C)[C@@H](C)CC [Cluster 382_3D7] (H-NSSIGLIMV-OH)
215 µM: IC50 (HLA A*0101)

IKKYLKKIKNSISTEWSPCS [ICS6]
29%: Percentage of donors demonstrating IL-2 responses, DR13 [1] | Percentage of donors demonstrating IL-2 responses, DR15 [1]
14%: Percentage of donors demonstrating IL-4 responses, DR15 [1]
25%: Percentage of donors demonstrating TNF-α responses, DR7 [1] | Percentage of donors demonstrating IFN-γ responses, DR8 [1] | Percentage of donors demonstrating IL-4 responses, DR9 [1] | Percentage of donors demonstrating IL-10 responses, DR9 [1] | Percentage of donors demonstrating IL-2 responses, DR11 [1] | Percentage of donors demonstrating IL-10 responses, DR11 [1]
30%: Percentage of donors demonstrating IL-2 responses, DR4 [1] | Percentage of donors demonstrating IL-10 responses, DR4 [1] | Percentage of donors demonstrating TNF-α responses, DR4 [1]
17%: Percentage of donors demonstrating IL-10 responses, DR3 [1]
40%: Percentage of donors demonstrating IFN-γ responses, DR4 [1]
33%: Percentage of donors demonstrating IL-2 responses, DR3 [1] | Percentage of donors demonstrating TNF-α responses, DR3 [1]
50%: Percentage of donors demonstrating IFN-γ responses, DR3 [1] | Percentage of donors demonstrating IFN-γ responses, DR7 [1] | Percentage of donors demonstrating IL-2 responses, DR7 [1] | Percentage of donors demonstrating IL-10 responses, DR7 [1] | Percentage of donors demonstrating IFN-γ responses, DR9 [1] | Percentage of donors demonstrating IL-2 responses, DR9 [1] | Percentage of donors demonstrating TNF-α responses, DR9 [1] | Percentage of donors demonstrating IFN-γ responses, DR11 [1] | Percentage of donors demonstrating TNF-α responses, DR11 [1]
43%: Percentage of donors demonstrating IFN-γ responses, DR13 [1] | Percentage of donors demonstrating TNF-α responses, DR13 [1] | Percentage of donors demonstrating IFN-γ responses, DR15 [1] | Percentage of donors demonstrating IL-10 responses, DR15 [1] | Percentage of donors demonstrating TNF-α responses, DR15 [1]
0%: Percentage of donors demonstrating IL-4 responses, DR1 [1] | Percentage of donors demonstrating IL-4 responses, DR3 [1] | Percentage of donors demonstrating IL-4 responses, DR4 [1] | Percentage of donors demonstrating IL-4 responses, DR7 [1] | Percentage of donors demonstrating IL-2 responses, DR8 [1] | Percentage of donors demonstrating IL-4 responses, DR8 [1] | Percentage of donors demonstrating IL-10 responses, DR8 [1] | Percentage of donors demonstrating TNF-α responses, DR8 [1] | Percentage of donors demonstrating IL-4 responses, DR11 [1] | Percentage of donors demonstrating IL-4 responses, DR13 [1] | Percentage of donors demonstrating IL-10 responses, DR13 [1]
20%: Percentage of donors demonstrating IFN-γ responses, DR1 [1] | Percentage of donors demonstrating IL-2 responses, DR1 [1] | Percentage of donors demonstrating IL-10 responses, DR1 [1] | Percentage of donors demonstrating TNF-α responses, DR1 [1]

NVDENANAN [Cluster 292_3D7]
Non-Binder: IC50 (nM) (HLA A*0101)
